Reference: patent US8609413B2, “Neurons, astrocytes and oligodendrocytes differentiated from a mammalian pluripotent or neural stem cells exposed to a pyridine deriviative” (Research Development Foundation, priority 2007, dated 2013)
“Also recorded” adds a separate entry of the source.

What was measured:
[1] = system: human ES cell-derived neural precursors; assay: Two step differentiation: precursors replated without compound in neuronal differentiation medium; type: cell-based
Excerpt: To investigate the potential of neural precursors generated through phenazopyridine treatment, cells exposed to DMSO or phenazopyridine for four weeks as in Example 2 were replated at low density (5×10^3 cells/cm^2) on polyornithine/laminin coated support in neuronal differentiation medium, and investigated for their phenotype at different time points. Cells were then immunostained for neuronal markers and alkaline phosphatase (marking undifferentiated ES cells) after one week and four weeks of differentiation. Immunostaining was performed for nestin, β3-tubulin, Sox1, Pax6, vimentin, GFAP, CNPase, v-Glut1, GAD67, tyrosine hydroxylase and alkaline phosphatase. […] Two different protocols were used to induce neuronal differentiation of human ES cells. In the first protocol, human ES cells were mechanically dissociated into small aggregates and plated on laminin/polyornithine coated six-well plates. Cells were cultured 2 weeks in human SR medium (DMEM F-12 supplemented with 15% knockout serum (Gibco), non-essential amino acids, penicillin and streptomycin), followed by 4 weeks in N2 medium. Compounds were added throughout these first 6 weeks. Subsequently, cells were mechanically dissociated and replated on polyornithine/laminin-coated 6 well plates. Throughout the text, this first differentiation protocol will be referred to as “differentiation protocol 1”. The second differentiation protocol was derived from previously described differentiation conditions (Nat et al., 2007). In the second differentiation protocol, undifferentiated human ES cells were mechanically dissociated into small aggregates and cultured in suspension on low-attachment six-well plates. For the first 4 days, they were cultured in neuronal induction medium (DMEM F-12, N2 supplement, penicillin and streptomycin), which was changed to simple neuronal proliferation medium (DMEM F-12, N2 supplement, 20 ng/ml bFGF, penicillin and streptomycin) for 2 additional days. Subsequently, aggregates were plated on polyornithine/laminin-coated six-well plates and maintained in simple neuronal proliferation medium for 7 days. Cells were then mechanically dissociated and replated in N2 medium at a density of 2×10^4 cells per cm^2 for two additional weeks. Compounds were added throughout these first 4 weeks. Cells were then replated at a density of 5′000 cells per cm^2 in neuronal differentiation medium (Neurobasal medium, B-27 supplement, BDNF (10 ng/ml), penicillin and streptomycin). Throughout the text, this second differentiation protocol will be referred as to “differentiation protocol 2”. […] To investigate the potential of neuronal precursors generated through phenazopyridine treatment, the inventors devised a two step differentiation protocol. Cells were first treated with 3 μM phenazopyridine for 4 weeks and subsequently replated in the absence of phenazopyridine. For the second step, the inventors cultured cells at low density (5×10^3 cells/cm^2) on polyornithine/laminin-coated support in neuronal differentiation medium and investigated their phenotype at different time points in three independent experiments.

H1 ES cells = assay: Real Time PCR of neural and non-neural markers during differentiation protocol 2; type: cell-based, human; conditions: 3 μM
Procedure: Real Time PCR. Reactions were run on an ABI Prism 7900 HT detection system (Applied Biosystems). ALAS and GusB were used as housekeeping genes. […] Sequences of the primers are shown in supplementary table.
The kinetics of emergence of neural and non-neural markers in DMSO and 3 μM phenazopyridine-treated H1 ES cells were evaluated using real time PCR. […] Expression of non-neural markers was next evaluated. […] The inventors reasoned that the persistence of these markers could be temporary and therefore investigated their expression after four weeks of differentiation.

Nc1ccc(/N=N/c2ccccc2)c(N)n1 [phenazopyridine]
phenotype 4 weeks after replating ([1]; 3 μM for 4 weeks, then 4 weeks without compound): formed networks of neurons, astrocytes and oligodendrocytes; also recorded: slow-growing cell clusters homogeneously positive for nestin, β3-tubulin, Sox1 and vimentin, together with more mature neurons, astrocytes and oligodendrocyte progenitors
subtypes of neurons ([1]; 3 μM for 4 weeks, then one week without compound): mainly glutamatergic, GABAergic and rarely dopaminergic neurons; also recorded: glutamatergic, GABAergic and—more rarely—TH-positive neurons
phenotype one week after replating ([1]; 3 μM for 4 weeks, then replated without compound): started to differentiate into neurons; also recorded: relatively homogenous monolayer of neural precursors and early neurons with short neurites
alkaline phosphatase-positive (undifferentiated ES) cells ([1]; after replating, vs control): never detected alkaline phosphatase-positive cells
astrocytes or oligodendrocyte precursors (GFAP, CNPase immunostaining) ([1]; one week after replating): did not observe the presence of astrocytes or oligodendrocytes precursors
expression of Oct-4 and brachyury (H1 ES cells; 2 weeks): increased
expression of forebrain (Mash1) and ventral hindbrain (Nkx2.2, HoxB4, Olig2) markers (H1 ES cells; 2 weeks): also upregulated
expression of α-fetoprotein (AFP) (H1 ES cells; 2 weeks): did not vary between both conditions
expression of early (Pax6, nestin), intermediate (β3-tubulin, vimentin) and late (β3-tubulin, Map2) neuronal differentiation markers (H1 ES cells; 2 weeks of differentiation, vs control): upregulation
expression of the same neural markers at 4 weeks (H1 ES cells; 4 weeks of differentiation): significant differences in the expression of the same markers at 4 weeks of differentiation were not observed
downregulation of Oct4 (H1 ES cells; four weeks of differentiation): > 1000 fold
downregulation of brachyury (H1 ES cells; four weeks of differentiation): > 10 fold
downregulation of α-fetoprotein (H1 ES cells; four weeks of differentiation): > 1000 fold
